Where “and” joins values, the source holds several entries; their conditions need not be identical. Identical values can stand only once.
Key:
[1] = molecular target: T1, NT5C1A (Homo sapiens, UniProt Q9BXI3); assay: In vitro phosphatase activity assay, NT5C1A (AMP); format: biochemical; conditions: DMSO control = 100, read-out: NT5C1A activity on AMP in presence of CP relative to DMSO controls
T1 construct: purchased Origene #TP324617
T1 sequence (Q9BXI3 1-368): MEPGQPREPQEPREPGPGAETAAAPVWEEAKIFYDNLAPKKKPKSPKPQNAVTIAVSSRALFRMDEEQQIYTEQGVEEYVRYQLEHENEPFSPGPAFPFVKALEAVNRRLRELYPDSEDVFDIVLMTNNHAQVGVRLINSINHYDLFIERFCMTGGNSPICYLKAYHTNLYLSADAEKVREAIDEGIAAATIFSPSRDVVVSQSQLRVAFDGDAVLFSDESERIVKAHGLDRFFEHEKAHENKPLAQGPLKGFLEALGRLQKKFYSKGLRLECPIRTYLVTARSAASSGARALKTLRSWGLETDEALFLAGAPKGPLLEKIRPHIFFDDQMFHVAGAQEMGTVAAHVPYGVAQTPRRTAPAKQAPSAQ
Description: Purified human NT5C1A (NM_032526, #TP324617) and purified human PHOSPHO1 (NM_178500, #TP314434) were from Origene. […] Data were analyzed with GraphPad Prism 7.04. […] Data are mean values ± S.E.M. of n=3 independent experiments.

[2] = molecular target: T2, murine PGP (Mus musculus, UniProt Q8CHP8); assay: SAR: CP1, CP2 and analogs on PGP phosphatase activity (PG); format: biochemical; set-up: His6 (N, cleaved yes); made in house; host or cells: Escherichia coli BL21 (DE3), pETM11, co-expressed with groES-groEL-tig
T2 sequence (Q8CHP8 1-321): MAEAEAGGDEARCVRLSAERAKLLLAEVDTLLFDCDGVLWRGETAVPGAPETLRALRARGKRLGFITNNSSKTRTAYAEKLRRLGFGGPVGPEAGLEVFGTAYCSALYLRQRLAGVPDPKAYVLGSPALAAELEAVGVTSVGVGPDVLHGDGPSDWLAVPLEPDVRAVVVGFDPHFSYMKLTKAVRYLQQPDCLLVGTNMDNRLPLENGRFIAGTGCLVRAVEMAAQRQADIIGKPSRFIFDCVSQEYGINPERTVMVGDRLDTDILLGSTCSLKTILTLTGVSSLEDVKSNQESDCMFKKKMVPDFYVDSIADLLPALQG
Description: However, the DMSO concentration was kept constant across each assay. For SAR experiments, all compound stocks were prepared at 10 mM in 100% DMSO. A constant final DMSO concentration of 0.4% was maintained under all conditions, and solvent control samples contained 0.4% DMSO without compounds.
PGP phosphatase activity were assessed using recombinant, purified murine PGP and PG as a

## COc1ccc(C(=O)Nc2ccc(Cc3ccc(NC(=O)c4ccc(OC)c(OC)c4)c(C(=O)O)c3)cc2C(=O)O)cc1OC [CP2]
[1]; CP log[M] -4.30103
  remaining activity at 50 µM: 11.9%
[1]; CP log[M] -4.39794
  remaining activity at 40 µM: 20.5%
[1]; CP log[M] -4.52288
  remaining activity at 30 µM: 33.1%
[1]; CP log[M] -4.60206
  remaining activity at 25 µM: 45.1%
[1]; CP log[M] -4.69897
  remaining activity at 20 µM: 62.1%
[1]; CP log[M] -4.82391
  remaining activity at 15 µM: 69%
[1]; CP log[M] -5
  remaining activity at 10 µM: 74.2%
[1]; CP log[M] -5.30103
  remaining activity at 5 µM: 83.9%
[1]; CP log[M] -5.60206
  remaining activity at […]: 91.1%
[2]; 40 µM CP, single experiments Exp #1-3
  inhibition of mPGP activity at 40 µM CP compared to DMSO control (%): 91.3408% and 89.3401% and 90.1099%
[2]; CP log[M] -4.79588, read-out: mPGP activity in presence of CP relative to DMSO controls, mPGP on PG (norm.)
  remaining activity at 16 µM: 20.6%
[2]; CP log[M] -5.39794, read-out: mPGP activity in presence of CP relative to DMSO controls, mPGP on PG (norm.)
  remaining activity at 4 µM: 34.3%
[2]; CP log[M] -5.69897, read-out: mPGP activity in presence of CP relative to DMSO controls, mPGP on PG (norm.)
  remaining activity at 2 µM: 51.6%
[2]; CP log[M] -6, read-out: mPGP activity in presence of CP relative to DMSO controls, mPGP on PG (norm.)
  remaining activity at 1 µM: 67.7%
[2]; CP log[M] -6.30103, read-out: mPGP activity in presence of CP relative to DMSO controls, mPGP on PG (norm.)
  remaining activity at 0.5 µM: 69%
[2]; CP log[M] -6.60206, read-out: mPGP activity in presence of CP relative to DMSO controls, mPGP on PG (norm.)
  remaining activity at […]: 72.6%
[2]; CP log[M] -6.90309, read-out: mPGP activity in presence of CP relative to DMSO controls, mPGP on PG (norm.)
  remaining activity at 0.125 µM: 81.8%
[2]; CP log[M] -7.20412, read-out: mPGP activity in presence of CP relative to DMSO controls, mPGP on PG (norm.)
  remaining activity at 0.0625 µM: 84.3%
[2]; CP log[M] -7.80618, read-out: mPGP activity in presence of CP relative to DMSO controls, mPGP on PG (norm.)
  remaining activity at 0.015625 µM: 96%

From PMC9652372, “Glycolytic flux control by drugging phosphoglycolate phosphatase” (Nature Communications, 2022)
